Tests used:
CDK4/cyclin D3 = molecular target: T1, CDK4/cyclin D3 (Homo sapiens, UniProt P11802); experiment: Inhibition of CDK4/Cyclin D retinoblastoma kinase activity; type: biochemical; conditions: apparent Ki, Rb fragment substrate
T1 construct: made in house; host or cells: insect cells (baculovirus co-infection)
In short: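 Apparent Ki derived by fitting activity at varied inhibitor concentrations to competitive (or competitive tight-binding) inhibition equations, background without enzyme subtracted. Radiometric filter-binding read-out of Rb(386-928) phosphorylation by 5 nM CDK4/cyclin D3(1-264); 25 μM ATP, pH 7.4, 2% DMSO, 30° C., 20 min, extended to 60 min for tight binders.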

CDK2/cyclin A = molecular target: T2, CDK2/cyclin A (Homo sapiens, UniProt P24941); experiment: Inhibition of CDK2/Cyclin A retinoblastoma kinase activity; type: biochemical; conditions: apparent Ki, Rb fragment substrate
T2 construct: made in house; host or cells: CDK2: insect cells (baculovirus); cyclin A: E. coli, then limited proteolysis
Procedure: (§1) Cyclin-dependent kinase activity was measured by quantifying the enzyme-catalyzed, time-dependent incorporation of radioactive phosphate from [^32P]ATP or [^33P]ATP into a protein substrate. Unless noted otherwise, assays were performed in 96-well plates in a total volume of 50 μL, in the presence of 10 mM HEPES (N-[2-hydroxyethyl]piperazine-N′-[2-ethanesulfonic acid]) (pH 7.4), 10 mM MgCl2, 25 μM adenosine triphosphate (ATP), 1 mg/mL ovalbumin, 5 μg/mL leupeptin, 1 mM dithiothreitol, 10 mM β-glycerophosphate, 0.1 mM sodium vanadate, 1 mM sodium fluoride, 2.5 mM ethylene glycol-bis(β-aminoethyl ether)-N,N,N′N′-tetraacetic acid (EGTA), 2% (v/v) dimethylsulfoxide, and 0.03-0.4 μCi [^32/33P]ATP per reaction. Reactions were initiated with enzyme, incubated at 30° C., and terminated after 20 minutes by the addition of ethylenediaminetetraacetic acid (EDTA) to 250 mM. The phosphorylated substrate was then captured on a nitrocellulose or phosphocellulose membrane using a 96-well filtration manifold, and unincorporated radioactivity was removed by repeated washing with 0.85% phosphoric acid. Radioactivity was quantified by exposing the dried membranes to a phosphorimager.
(§2) Inhibition was measured relative to control wells that contained all reaction components including 2% (v/v) DMSO but no compound, after subtraction of background radioactivity measured in the absence of enzyme. Apparent Ki values of discrete compounds were measured by assaying enzyme activity in the presence of different inhibitor compound concentrations and subtracting the background radioactivity measured in the absence of enzyme. The kinetic parameters (kcat, Km for ATP) were measured for each enzyme under the usual assay conditions by determining the dependence of initial rates on ATP concentration. Inhibition data were fit to an equation for competitive inhibition using Kaleidagraph (Synergy Software), or were fit to an equation for competitive tight-binding inhibition using the software KineTic (BioKin, Ltd.).
CDK2 was purified using published methodology (Rosenblatt et al., J. Mol. Biol., 230, 1317-1319 (1993)) from insect cells that had been infected with a baculovirus expression vector. Cyclin A was purified from E. coli cells expressing full-length recombinant cyclin A, and a truncated cyclin A construct was generated by limited proteolysis and purified as described previously (Jeffrey et al., Nature, 376, 313-320 (1995)). A complex of CDK2 and proteolyzed cyclin A was prepared and purified by gel filtration. The substrate for this assay was the same Rb substrate fragment used for the CDK4 assays, and the methodology of the CDK2/delta cyclin A and the CDK4/delta cyclin D3 assays was essentially the same, except that CDK2 was present at 10 nM or 19 nM. The duration of the assay was 60 or 75 minutes, during which the time-dependence of product formation was linear and initial rate conditions were met.

CDK1 (cdc2)/cyclin B = molecular target: T3, CDK1 (cdc2)/cyclin B (Homo sapiens, UniProt P06493); experiment: Inhibition of CDK1(cdc2)/Cyclin B histone H1 kinase activity; type: biochemical; conditions: apparent Ki, histone H1 substrate
T3 construct: purchased New England Biolabs (Beverly Mass.)
Procedure: as §1
as §2, with “Inhibition data were fit to an equation for competitive inhibition using Kaleidagraph (Synergy Software), or were fit to an equation for competitive tight-binding inhibition using the software KineTic (BioKin, Ltd.).” left out
The complex of human CDK1 (cdc2) and cyclin B was purchased from New England Biolabs (Beverly Mass.). […] Phosphorylated histone substrate was captured by microfiltration on a phosphocellulose P81 membrane and quantified using a phosphorimager as described above.

HCT-116 cells = experiment: Inhibition of cell growth (MTT tetrazolium salt assay); type: cell-based; conditions: Homo sapiens; for IC50: read-out: HCT116 IC50; for IC90: read-out: HCT116 IC90
In short: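 HCT-116 cells in McCoy's 5A were pre-incubated 4 h, then exposed to compounds in 0.5% DMSO for 4–6 days at 37 °C. MTT at 0.2 mg/mL final was added for 4 h and DMSO-solubilized formazan read at 540 nm. Values are relative to 0.5% DMSO-only controls.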

T3 sequence (P06493 whole entry): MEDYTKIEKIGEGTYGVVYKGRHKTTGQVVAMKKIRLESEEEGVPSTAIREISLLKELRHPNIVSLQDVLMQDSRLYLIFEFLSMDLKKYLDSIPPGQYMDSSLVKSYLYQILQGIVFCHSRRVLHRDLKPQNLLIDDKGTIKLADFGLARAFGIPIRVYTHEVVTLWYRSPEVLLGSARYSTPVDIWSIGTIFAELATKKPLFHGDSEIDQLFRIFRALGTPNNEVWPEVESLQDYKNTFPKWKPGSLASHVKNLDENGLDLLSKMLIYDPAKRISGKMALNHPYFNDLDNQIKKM
T3 sequence (P14635 whole entry partner): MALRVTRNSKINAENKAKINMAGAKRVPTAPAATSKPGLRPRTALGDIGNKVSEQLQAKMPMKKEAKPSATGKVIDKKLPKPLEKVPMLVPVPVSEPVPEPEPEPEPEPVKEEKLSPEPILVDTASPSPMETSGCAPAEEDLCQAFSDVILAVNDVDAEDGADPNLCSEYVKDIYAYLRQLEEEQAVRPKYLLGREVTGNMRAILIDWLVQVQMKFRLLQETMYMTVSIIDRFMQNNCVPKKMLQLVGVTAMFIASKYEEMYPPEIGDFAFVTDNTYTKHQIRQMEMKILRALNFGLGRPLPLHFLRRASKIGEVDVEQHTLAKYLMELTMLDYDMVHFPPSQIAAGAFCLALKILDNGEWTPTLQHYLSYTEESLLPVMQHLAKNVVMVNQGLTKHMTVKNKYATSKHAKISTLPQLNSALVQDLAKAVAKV
T1 sequence (P11802 whole entry, the tested form may be a part): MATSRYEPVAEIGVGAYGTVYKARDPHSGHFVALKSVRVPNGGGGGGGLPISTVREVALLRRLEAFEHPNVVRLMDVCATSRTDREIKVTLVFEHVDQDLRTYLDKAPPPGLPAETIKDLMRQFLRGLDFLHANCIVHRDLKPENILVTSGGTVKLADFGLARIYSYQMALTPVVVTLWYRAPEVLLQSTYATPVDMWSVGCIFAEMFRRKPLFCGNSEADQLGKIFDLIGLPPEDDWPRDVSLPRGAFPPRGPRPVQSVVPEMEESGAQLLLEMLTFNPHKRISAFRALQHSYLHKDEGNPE
T1 sequence (P30281 1-264 partner limits assumed): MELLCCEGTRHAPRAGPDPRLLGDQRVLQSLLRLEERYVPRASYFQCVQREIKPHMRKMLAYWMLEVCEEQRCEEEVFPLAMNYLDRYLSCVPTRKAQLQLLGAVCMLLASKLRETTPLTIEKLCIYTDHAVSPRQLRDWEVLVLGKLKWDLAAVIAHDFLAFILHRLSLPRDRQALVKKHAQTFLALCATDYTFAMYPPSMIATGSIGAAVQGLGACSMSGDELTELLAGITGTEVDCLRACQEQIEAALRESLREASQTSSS

Row | SMILES | Ki (CDK4/cyclin D3) [nM] | Ki (CDK2/cyclin A) [nM] | Ki (CDK1 (cdc2)/cyclin B) [nM] | IC50 (HCT-116 cells) [nM] | IC90 (HCT-116 cells) [nM]
1 | CS(=O)(=O)c1ccc(Nc2nc(N)c(C(=O)c3c(Cl)cccc3Cl)s2)cc1 [AA(2), 4-Amino-5-(2,6-dichlorobenzoyl)-2-(4-methanesulfonyl-phenylamino)-thiazole] | 42 | 138 | 93 | 4500 | 18000
2 | Nc1nc(Nc2ccc(S(=O)(=O)N3CCC(CCO)CC3)cc2)sc1C(=O)c1c(F)cccc1F [Example A(16), (4-Amino-2-{4-[4-(2-hydroxy-ethyl)-piperidine-1-sulfonyl]-phenylamino}thiazol-5-yl)-(2,6-difluoro-phenyl)-methanone] | 57 | 18 | – | 1500 | 3900
3 | CSc1ccc(Nc2nc(N)c(C(=O)c3c(Cl)cccc3Cl)s2)cc1 [R(2), 4-Amino-5-(2,6-dichlorobenzoyl)-2-(4-methylthio-phenylamino)-thiazole] | 30 | 250 | – | 12000 | > 25000
4 | NC(=O)CSc1ccc(Nc2nc(N)c(C(=O)c3c(Cl)cccc3Cl)s2)cc1 [Y(1), 2-{4-[4-Amino-5-(2,6-dichloro-benzoyl)-thiazol-2-ylamino]-phenylthio}-acetamide] | 11 | 66 | – | 2300 | 6000
5 | Nc1nc(Nc2ccc(SCCO)cc2)sc1C(=O)c1c(Cl)cccc1Cl [Y(2), 4-Amino-5-(2,6-dichlorobenzoyl)-2-[4-(2-hydroxy-ethylthio)-phenylamino]-thiazole] | 7.6 | 140 | – | 3900 | 13000
6 | NC(=O)CSc1cccc(Nc2nc(N)c(C(=O)c3c(Cl)cccc3Cl)s2)c1 [Y(3), 2-{3-[4-Amino-5-(2,6-dichloro-benzoyl)-thiazol-2-ylamino]-phenylthio) acetamide] | 33 | 92 | – | 11000 | > 25000
7 | NC(=O)C[S+]([O-])c1ccc(Nc2nc(N)c(C(=O)c3c(Cl)cccc3Cl)s2)cc1 (stereo not drawn) [Z(2), 2-(4-{4-Amino-5-(2,6-dichlorobenzoyl)-thiazol-2-ylamino}-benzenesulfinyl)-acetamide] | 15 | 62 | – | 18000 | > 25000
8 | Nc1nc(Nc2ccc([S+]([O-])CCO)cc2)sc1C(=O)c1c(Cl)cccc1Cl (stereo not drawn) [Z(3), 4-Amino-5-(2,6-dichlorobenzoyl)-2-[4-(2-hydroxy-ethanesulfinyl)-phenylamino]-thiazole] | 30 | 170 | – | 6800 | 16000
9 | C[S+]([O-])c1ccc(Nc2nc(N)c(C(=O)c3c(Cl)cccc3Cl)s2)cc1 (stereo not drawn) [Z(4), 4-Amino-5-(2,6-dichlorobenzoyl)-2-(4-methanesulfinyl-phenylamino)-thiazole] | 38 | 303 | 120 | 4000 | 12000
10 | NC(=O)C[S+]([O-])c1cccc(Nc2nc(N)c(C(=O)c3c(Cl)cccc3Cl)s2)c1 (stereo not drawn) [Z(5), 2-{3-[4-Amino-5-(2,6-dichloro-benzoyl)-thiazol-2-ylamino]-benzenesulfinyl}-acetamide] | 230 | 330 | – | > 25000 | > 25000

Next, values leading:

Row | Ki (CDK4/cyclin D3) [nM] | Ki (CDK2/cyclin A) [nM] | Ki (CDK1 (cdc2)/cyclin B) [nM] | IC50 (HCT-116 cells) [nM] | IC90 (HCT-116 cells) [nM] | SMILES
11 | 28 | < 5 | 3.9 | 43 | 140 | Cc1ccc(CNS(=O)(=O)c2ccc(Nc3nc(N)c(C(=O)c4c(F)cccc4F)s3)cc2)o1 [Example A(11), 4-[4-Amino-5-(2,6-difluoro-benzoyl)-thiazol-2-ylamino]-N-(5-methyl-furan-2-ylmethyl)-benzenesulfonamide]
12 | 14 | 2 | – | 140 | 450 | CC(C)OCCNS(=O)(=O)c1ccc(Nc2nc(N)c(C(=O)c3c(F)cccc3F)s2)cc1 [Example A(17), 4-[4-Amino-5-(2,6-difluoro-benzoyl)-thiazol-2-ylamino]-N-(2-isopropoxy-ethyl)-benzenesulfonamide]
13 | 24 | 5.8 | – | 1800 | 3700 | Cc1ccc(CCNS(=O)(=O)c2ccc(Nc3nc(N)c(C(=O)c4c(F)cccc4F)s3)cc2)cc1 [Example A(18), 4-[4-Amino-5-(2,6-difluoro-benzoyl)-thiazol-2-ylamino]-N-(2-p-tolyl-ethyl)-benzenesulfonamide]
14 | 24 | 1.8 | – | 400 | 1300 | CCSCCNS(=O)(=O)c1ccc(Nc2nc(N)c(C(=O)c3c(F)cccc3F)s2)cc1 [Example A(19), 4-[4-Amino-5-(2,6-difluoro-benzoyl)-thiazol-2-ylamino]-N-(2-ethylsulfanyl-ethyl)-benzenesulfonamide]
15 | 14 | < 5 | – | 900 | 2600 | Nc1nc(Nc2ccc(S(=O)(=O)NCCc3ccc(F)cc3)cc2)sc1C(=O)c1c(F)cccc1F [Example A(20), 4-[4-Amino-5-(2,6-difluoro-benzoyl)-thiazol-2-ylamino]-N-[2-(4-fluoro-phenyl)-ethyl]-benzenesulfonamide]
16 | 6.8 | 14 | – | 1800 | 4400 | CN(C)CCCNS(=O)(=O)c1ccc(Nc2nc(N)c(C(=O)c3c(F)cccc3F)s2)cc1 [Example A(21), 4-[4-Amino-5-(2,6-difluoro-benzoyl)-thiazol-2-ylamino]-N-(3-dimethylamino-propyl)-benzenesulfonamide]
17 | 9.7 | 0.74 | – | 280 | 480 | Cc1cc(F)c(C(=O)c2sc(Nc3ccc(S(=O)(=O)NCCOC(C)C)cc3)nc2N)c(F)c1 [Example CC(1), 4-[4-Amino-5-(2,6-difluoro-4-methyl-benzoyl)-thiazol-2-ylamino]-N-(2-isopropoxy-ethyl)-benzenesulfonamide]
18 | 73 | 210 | – | 1300 | 3800 | CS(=O)(=O)c1ccc(Nc2nc(N)c(C(=O)c3c(F)cccc3F)s2)cc1 [Q(1), 1-[4-Amino-2-(4-methanesulfonyl-phenylamino)-thiazol-5-yl]-1-(2,6-difluoro-phenyl)-methanone]

— patent US20040176431A1, “Antiproliferative 2-(sulfo-phenyl)-aminothiazole derivatives and pharmaceutical compositions, and methods for their use” (Pfizer, Inc., priority 2003, published 2004)
